The source of these data is patent US12226479B2, “Methods and compositions of use of CD8+ tumor infiltrating lymphocyte subtypes and gene signatures thereof” (THE GENERAL HOSPITAL CORPORATION, priority 2017, dated 2025).

This assay concerns B16-F10. The experiment in a line: Transplantable B16-F10 melanoma mouse model: tumor growth and survival under CD39 inhibitor and checkpoint antibodies.

Description: A schematic summary of the therapy regimen used in the transplantable B16-F10 mouse model (described in Methods). Mice were divided into four groups (n=10 per group): untreated (vehicle control), anti-TIM3, CD39 inhibitor (CD39i, using POM-1 small molecule) and anti-TIM3 in combination with CD39i. FIG. 26D. Box plots showing the kinetics of tumor growth between the different groups of mice on days +4, +7, +11, +14 and +18 post tumor transplantation. Data in box plots are means±SEM. P-value was determined by unpaired-student's t-test. FIG. 26E. Mean tumor volumes for all 4 groups are shown, means±SEM. FIG. 26F. Survival at day 30 of B16-F10 tumor-bearing mice for all 4 groups. Log-rank P-value is shown. Data shown for C-F represents one out of two independent experiments, n=10 for each group per experiment. ns—not significant.
To that end Applicants used the aggressive B16-F10 melanoma mouse model. Mice were treated with the small molecule POM-1 to block CD39 activity^38, alone or in combination with anti-TIM3 blocking antibodies (FIG. 26C).
Mice and tumor transplant. […] B16-F10 cells (0.5×10^6) were intradermally injected into the right flank using a 30 g needle and tumors were measured every 4 days in two dimensions using a digital caliper. Tumor volume (mm^3) was calculated using the following formula V=(L*W^2)/2 (V=volume, L=tumor length, tumor width). […]

On to `O.[Na+].[Na+].[Na+].[Na+].[Na+].[Na+].[O]=[W](=[O])([O-])[O-].[O]=[W](=[O])([O-])[O-].[O]=[W](=[O])([O-])[O-].[O]=[W](=[O])=[O].[O]=[W](=[O])=[O].[O]=[W](=[O])=[O].[O]=[W](=[O])=[O].[O]=[W](=[O])=[O].[O]=[W](=[O])=[O].[O]=[W](=[O])=[O].[O]=[W](=[O])=[O].[O]=[W](=[O])=[O]` [POM-1, polyoxometalate-1], for which, for the setting “B16-F10 intradermal tumors, CD39 inhibitor and/or anti-TIM3, versus untreated”, the “tumor growth / tumor size” value is listed as “transiently reduced tumor growth until day 14”. Besides, the “survival on day 30” value (B16-F10 tumor-bearing mice, n=10 per group, POM-1 5 mg/kg/day i.p., anti-TIM3 100 μg/dose i.p. every 3 days, from day 4) is 10%.
